Data as given in patent US11926628B2 (Gilead Sciences, Inc., priority 2021, dated 2024).

Columns and labels:
human DGKα = human DGKα (Homo sapiens (Human), UniProt P23743); assay: DGKα Biochemical Activity Assay (ADP-Glo); settings: recombinant DGKα 1 nM, 100 μM ATP, 18:1 DAG/POPS/octylglucoside micelles, 1 hour at 25° C.; geometric mean; read-out: HTBS DGKa 1X ATP KM IC50
In short: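 Recombinant DGKα (1 nM final) was preincubated with compound for 15 min, then reacted for 1 h at 25 °C with 100 μM ATP and octylglucoside micelles of 0.85 mM 18:1 DAG and 6.75 mM POPS in pH 7.2 MOPS with 5 mM MgCl2. ADP formed was read by ADP-Glo luminescence. IC50 came from four-parameter fits normalized to DMSO and 50 μM CU3, and values were geometric means.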

[1] = test system: Jurkat NFκB-luciferase cells; assay: Jurkat NFκB-Luciferase Assay; assay type: cell-based; settings: Homo sapiens; Jurkat NFκB-luciferase cells activated with anti-CD3 antibody (OKT3), 2.5 hrs at 37° C.; geometric mean; read-out: DGK NFKb Luciferase EC50
In short: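 Jurkat NFκB-luciferase reporter cells stimulated on plate-bound anti-CD3 (5 ug/ml coating) with compound, 2.5 hrs at 37° C then 30 min at 25° C; luminescence read with One-Glo Ex. Normalized to DMSO (basal) and 1 micromolar compound (maximum) controls; EC50 from four-parameter fit, geometric mean across experiments.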

Chain of human DGKα (P23743 whole entry): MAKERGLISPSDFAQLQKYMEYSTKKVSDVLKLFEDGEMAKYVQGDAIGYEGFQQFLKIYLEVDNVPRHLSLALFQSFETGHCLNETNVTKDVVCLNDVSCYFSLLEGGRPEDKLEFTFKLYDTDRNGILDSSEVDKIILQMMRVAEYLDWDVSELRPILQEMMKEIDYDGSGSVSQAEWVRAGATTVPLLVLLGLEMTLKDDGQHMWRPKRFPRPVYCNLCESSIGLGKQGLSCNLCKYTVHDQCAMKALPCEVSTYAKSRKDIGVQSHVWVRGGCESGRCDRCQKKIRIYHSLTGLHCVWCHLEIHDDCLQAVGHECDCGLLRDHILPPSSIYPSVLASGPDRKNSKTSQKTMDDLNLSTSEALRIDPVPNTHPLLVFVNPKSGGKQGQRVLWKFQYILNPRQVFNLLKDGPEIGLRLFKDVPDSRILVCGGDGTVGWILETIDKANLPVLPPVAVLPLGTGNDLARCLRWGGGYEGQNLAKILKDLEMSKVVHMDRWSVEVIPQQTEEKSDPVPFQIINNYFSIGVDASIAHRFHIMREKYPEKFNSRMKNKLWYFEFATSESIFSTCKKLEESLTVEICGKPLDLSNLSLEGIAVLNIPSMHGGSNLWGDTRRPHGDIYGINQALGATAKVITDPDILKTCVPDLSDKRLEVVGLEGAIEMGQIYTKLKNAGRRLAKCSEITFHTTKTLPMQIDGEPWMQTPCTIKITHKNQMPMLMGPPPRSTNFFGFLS

| Structure (SMILES) | IC50 (human DGKα) [nM] | EC50 [1] [nM] |
| --- | --- | --- |
| Cc1nnc2nc(N(CC(F)F)c3cc(F)cc(C#CC4(C(F)(F)F)CC4)c3)c3c(F)cncc3n12 [Example 51, N-(2,2-difluoroethyl)-6-fluoro-N-(3-fluoro-5-((1-(trifluoromethyl)cyclopropyl)ethynyl)phenyl)-1-methylpyrido[4,3-e][1,2,4]triazolo[4,3-a]pyrimidin-5-amine] | 36.2 | 9.17 |
| Cc1nnc2nc(N(CC(F)F)c3ccnc(C#CC(C)(C)O)c3)c3c(F)cncc3n12 [Example 52, 4-(4-((2,2-difluoroethyl)(6-fluoro-1-methylpyrido[4,3-e][1,2,4]triazolo[4,3-a]pyrimidin-5-yl)amino)pyridin-2-yl)-2-methylbut-3-yn-2-ol] | 204 | 1000 |
| CC(C)(O)C#Cc1cc(N(CC(F)F)c2nc3nncn3c3cncc(F)c23)ccn1 [Example 54, 4-(4-((2,2-difluoroethyl)(6-fluoropyrido[4,3-e][1,2,4]triazolo[4,3-a]pyrimidin-5-yl)amino)pyridin-2-yl)-2-methylbut-3-yn-2-ol] | 184 | 1000 |
| Fc1cncc2c1c(N(CC(F)F)c1ccnc(C#CC3(C(F)(F)F)CC3)c1)nc1nncn12 [Example 55, N-(2,2-difluoroethyl)-6-fluoro-N-(2-((1-(trifluoromethyl)cyclopropyl)ethynyl)pyridin-4-yl)pyrido[4,3-e][1,2,4]triazolo[4,3-a]pyrimidin-5-amine] | 23.3 | 28.1 |
| Cc1nnc2nc(N3CCOCc4c(C#CC5CN(C)CCO5)cccc43)c3c(F)cncc3n12 (centres unmarked) [Example 56, 1-(10-fluoro-3-methyl-2,4,5,7,12-pentazatricyclo[7.4.0.02,6]trideca-1(13),3,5,7,9,11-hexaen-8-yl)-6-[2-(4-methylmorpholin-2-yl)ethynyl]-3,5-dihydro-2H-4,1-benzoxazepine] | 18.6 | 109 |
| CN(c1cncc(-c2ccc(C3CC3)cc2)n1)c1nc2nncn2c2cnccc12 [Example 57, N-[6-(4-cyclopropylphenyl)pyrazin-2-yl]-N-methyl-2,4,5,7,12-pentazatricyclo[7.4.0.02,6]trideca-1(13),3,5,7,9,11-hexaen-8-amine] | 130 | 9.91 |
| CCN(c1cccc(-c2ccc(C3CC3)nc2)c1)c1nc2nncn2c2cnccc12 [Example 58, N-[3-(6-cyclopropyl-3-pyridyl)phenyl]-N-ethyl-2,4,5,7,12-pentazatricyclo[7.4.0.02,6]trideca-1(13),3,5,7,9,11-hexaen-8-amine] | 219 | 28.9 |
| CN(c1cccc(-c2ccc(N3CCCS3(=O)=O)cc2)c1)c1nc2nncn2c2cnccc12 [Example 59, N-[3-[4-(1,1-dioxo-1,2-thiazolidin-2-yl)phenyl]phenyl]-N-methyl-2,4,5,7,12-pentazatricyclo[7.4.0.02,6]trideca-1(13),3,5,7,9,11-hexaen-8-amine] | 45.2 | 121 |
| CN(c1cccc(-c2ccc(C3CC3)cc2)c1)c1nc2nncn2c2cnccc12 [Example 61, N-[3-(4-cyclopropylphenyl)phenyl]-N-methyl-2,4,5,7,12-pentazatricyclo[7.4.0.02,6]trideca-1(13),3,5,7,9,11-hexaen-8-amine] | 22.8 | 0.543 |
| CN(c1cccc(-c2ccc(C3CC3)nc2)c1)c1nc2nncn2c2cnccc12 [Example 62, N-[3-(6-cyclopropyl-3-pyridyl)phenyl]-N-methyl-2,4,5,7,12-pentazatricyclo[7.4.0.02,6]trideca-1(13),3,5,7,9,11-hexaen-8-amine] | 159 | 27.7 |
| Cc1nnc2nc(N3CCCCc4c(C#CC5(C(C)(F)F)CC5)cccc43)c3c(F)cncc3n12 [Example 65, 5-(6-((1-(1,1-difluoroethyl)cyclopropyl)ethynyl)-2,3,4,5-tetrahydro-1H-benzo[b]azepin-1-yl)-6-fluoro-1-methylpyrido[4,3-e][1,2,4]triazolo[4,3-a]pyrimidine] | 22.7 | 0.337 |
| Cc1nnc2nc(N3CCCCc4c(C#CC(C)(C)O)cccc43)c3c(F)cncc3n12 [Example 66, 4-(1-(6-fluoro-1-methylpyrido[4,3-e][1,2,4]triazolo[4,3-a]pyrimidin-5-yl)-2,3,4,5-tetrahydro-1H-benzo[b]azepin-6-yl)-2-methylbut-3-yn-2-ol] | 6.14 | 15.9 |
| Cc1nnc2nc(N3CCCCc4c(Br)cccc43)c3c(F)cncc3n12 [Example 69, 5-(6-bromo-2,3,4,5-tetrahydro-1H-benzo[b]azepin-1-yl)-6-fluoro-1-methylpyrido[4,3-e][1,2,4]triazolo[4,3-a]pyrimidine] | 220 | 13.9 |
| Cc1nnc2nc(N3CCCOc4c(C#CC(C)(C)O)cccc43)c3c(F)cncc3n12 [Example 71, 4-(5-(6-fluoro-1-methylpyrido[4,3-e][1,2,4]triazolo[4,3-a]pyrimidin-5-yl)-2,3,4,5-tetrahydrobenzo[b][1,4]oxazepin-9-yl)-2-methylbut-3-yn-2-ol] | 18.5 | 304 |
| Cc1nnc2nc(N3CCCOc4c(Br)cccc43)c3c(F)cncc3n12 [Example 75, 9-bromo-5-(6-fluoro-1-methylpyrido[4,3-e][1,2,4]triazolo[4,3-a]pyrimidin-5-yl)-2,3,4,5-tetrahydrobenzo[b][1,4]oxazepine] | 357 | 48.2 |
| Cc1nnc2nc(N3CCOCc4c(C#CC(C)(C)O)cccc43)c3c(F)cncc3n12 [Example 77, 4-(1-(6-fluoro-1-methylpyrido[4,3-e][1,2,4]triazolo[4,3-a]pyrimidin-5-yl)-1,2,3,5-tetrahydrobenzo[e][1,4]oxazepin-6-yl)-2-methylbut-3-yn-2-ol] | 12.6 | 130 |

Further compounds by falling IC50 (human DGKα), results first:

| IC50 (human DGKα) [nM] | EC50 [1] [nM] | Structure (SMILES) |
| --- | --- | --- |
| 16 | 12.1 | Cc1nnc2nc(N(CC(F)F)c3ccnc(C#CC4(C(F)(F)F)CC4)c3)c3c(F)cncc3n12 [Example 53, N-(2,2-difluoroethyl)-6-fluoro-1-methyl-N-(2-((1-(trifluoromethyl)cyclopropyl)ethynyl)pyridin-4-yl)pyrido[4,3-e][1,2,4]triazolo[4,3-a]pyrimidin-5-amine] |
| 11.6 | 1.09 | Cc1nnc2nc(N3CCCCc4c(C#CC(C)(C)C(C)(F)F)cccc43)c3c(F)cncc3n12 [Example 63, 5-(6-(4,4-difluoro-3,3-dimethylpent-1-yn-1-yl)-2,3,4,5-tetrahydro-1H-benzo[b]azepin-1-yl)-6-fluoro-1-methylpyrido[4,3-e][1,2,4]triazolo[4,3-a]pyrimidine] |
| 7.67 | 1.19 | Cc1nnc2nc(N3CCCCc4c(C#CC5CC5)cccc43)c3c(F)cncc3n12 [Example 68, 5-(6-(cyclopropylethynyl)-2,3,4,5-tetrahydro-1H-benzo[b]azepin-1-yl)-6-fluoro-1-methylpyrido[4,3-e][1,2,4]triazolo[4,3-a]pyrimidine] |
| 7.4 | 3.03 | Cc1nnc2nc(N3CCCOc4c(C#CC5(C(F)(F)F)CC5)cccc43)c3c(F)cncc3n12 [Example 72, 5-(6-fluoro-1-methylpyrido[4,3-e][1,2,4]triazolo[4,3-a]pyrimidin-5-yl)-9-((1-(trifluoromethyl)cyclopropyl)ethynyl)-2,3,4,5-tetrahydrobenzo[b][1,4]oxazepine] |
| 6.44 | 2.62 | Cc1nnc2nc(N3CCCOc4c(C#CC(C)(C)C(F)(F)F)cccc43)c3c(F)cncc3n12 [Example 70, 5-(6-fluoro-1-methylpyrido[4,3-e][1,2,4]triazolo[4,3-a]pyrimidin-5-yl)-9-(4,4,4-trifluoro-3,3-dimethylbut-1-yn-1-yl)-2,3,4,5-tetrahydrobenzo[b][1,4]oxazepine] |
| 6.09 | 1.41 | Cc1nnc2nc(N3CCOCc4c(C#CC(C)(C)C(F)(F)F)cccc43)c3c(F)cncc3n12 [Example 76, 1-(6-fluoro-1-methylpyrido[4,3-e][1,2,4]triazolo[4,3-a]pyrimidin-5-yl)-6-(4,4,4-trifluoro-3,3-dimethylbut-1-yn-1-yl)-1,2,3,5-tetrahydrobenzo[e][1,4]oxazepine] |
| 4.17 | 3.45 | Cc1nnc2nc(N3CCCOc4c(C#CC5(C)CC5)cccc43)c3c(F)cncc3n12 [Example 73, 5-(6-fluoro-1-methylpyrido[4,3-e][1,2,4]triazolo[4,3-a]pyrimidin-5-yl)-9-((1-methylcyclopropyl)ethynyl)-2,3,4,5-tetrahydrobenzo[b][1,4]oxazepine] |
| 3.96 | 1.24 | Cc1nnc2nc(N3CCCCc4c(C#CC5(C(F)F)CC5)cccc43)c3c(F)cncc3n12 [Example 67, 5-(6-((1-(difluoromethyl)cyclopropyl)ethynyl)-2,3,4,5-tetrahydro-1H-benzo[b]azepin-1-yl)-6-fluoro-1-methylpyrido[4,3-e][1,2,4]triazolo[4,3-a]pyrimidine] |
| 2.29 | 3.27 | Cc1nnc2nc(N3CCCOc4c(C#CC5CC5)cccc43)c3c(F)cncc3n12 [Example 74, 9-(cyclopropylethynyl)-5-(6-fluoro-1-methylpyrido[4,3-e][1,2,4]triazolo[4,3-a]pyrimidin-5-yl)-2,3,4,5-tetrahydrobenzo[b][1,4]oxazepine] |
